Legend:
barnyardgrass [1] = assay: Test B pre-/postemergence herbicide test; type: in vivo, Echinochloa crus-galli; conditions: for Barnyardgrass plant response rating (0 to 100 scale) / Plant response rating, Barnyardgrass: 0 = no effect, 100 = complete control, preemergence; for Barnyardgrass plant response rating: postemergence
Outline: (§1)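 Seeds were planted and treated preemergence with compounds formulated in a non-phytotoxic solvent mixture containing surfactant, while plants at the 1- to 4-leaf stage (2 to 18 cm) received postemergence sprays. Flooded paddy plants were grown to the 2-leaf stage. After 13 to 15 days in a greenhouse, injury was visually rated 0–100 against untreated controls.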

large crabgrass = assay: Test B pre-/postemergence herbicide test; type: in vivo, Digitaria sanguinalis; conditions: for Crabgrass, Large plant response rating (0 to 100 scale) / Plant response rating, Crabgrass, Large: 0 = no effect, 100 = complete control, preemergence; for Crabgrass, Large plant response rating: postemergence
Outline: (§2)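 Herbicidal effect was judged by eye on a 0–100 scale after plants stood 13 to 15 days in the greenhouse following pre- or postemergence treatment with surfactant-containing formulations.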

wheat = assay: Test B postemergence herbicide test; type: in vivo, Triticum aestivum; parameters: key to Wheat plant response rating: 0 = no effect, 100 = complete control; conditions: postemergence
Outline: (§3)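 Each value is a visual 0–100 response rating taken against controls 13 to 15 days after treatment in the greenhouse. Plants received formulated chemical postemergence at the 1- to 4-leaf stage or, in flooded paddy, at the 2-leaf stage.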

Surinam grass = assay: Test B pre-/postemergence herbicide test; type: in vivo, Urochloa decumbens; conditions: for Surinam Grass plant response rating (0 to 100 scale) / Plant response rating, Surinam Grass: 0 = no effect, 100 = complete control, preemergence; for Surinam Grass plant response rating: postemergence
Outline: as §2

rice = assay: Test B flooded paddy test; type: in vivo, Oryza sativa; conditions: 1000 g ai/ha, scale 0 to 100 (0 no effect, 100 complete control)
Outline: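 Treated at 2-leaf (paddy) or 1–4-leaf, 2–18 cm (postemergence); greenhouse 13–15 d; visual score vs control, 0 none to 100 complete control; dash = not tested.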

[2] = system: small flower umbrella sedge; assay: Test B flooded paddy test; type: in vivo, Cyperus difformis; conditions: 1000 g ai/ha, scale 0 to 100 (0 no effect, 100 complete control)
Outline: (§4)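 Postemergence plants were sprayed with formulated test chemicals at 2 to 18 cm height (1- to 4-leaf stage); paddy species were grown to the 2-leaf stage. After 13 to 15 days in a greenhouse, injury was rated visually against untreated controls on a 0–100 scale (0 = no effect, 100 = complete control).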

barnyardgrass [3] = assay: Test B flooded paddy test; type: in vivo, Echinochloa crus-galli; conditions: 1000 g ai/ha, scale 0 to 100 (0 no effect, 100 complete control)
Outline: as §4

giant foxtail = assay: Test B pre-/postemergence herbicide test; type: in vivo, Setaria faberi; conditions: for Foxtail, Giant plant response rating (0 to 100 scale) / Plant response rating, Foxtail, Giant: 0 = no effect, 100 = complete control, preemergence; for Foxtail, Giant plant response rating: postemergence
Outline: as §2

blackgrass = assay: Test B postemergence herbicide test; type: in vivo, Alopecurus myosuroides; conditions: postemergence
Outline: as §4

lambsquarters = assay: Test B pre-/postemergence herbicide test; type: in vivo, Chenopodium album; conditions: for Lambsquarters plant response rating (0 to 100 scale) / Plant response rating, Lambsquarters: 0 = no effect, 100 = complete control, preemergence; for Lambsquarters plant response rating: postemergence
Outline: as §2

ducksalad = assay: Test B flooded paddy test; type: in vivo, Heteranthera limosa; conditions: 1000 g ai/ha, scale 0 to 100 (0 no effect, 100 complete control)
Outline: as §4

cocklebur = assay: Test B pre-/postemergence herbicide test; type: in vivo, Xanthium strumarium; conditions: for Cocklebur plant response rating (0 to 100 scale) / Plant response rating, Cocklebur: 0 = no effect, 100 = complete control, preemergence; for Cocklebur plant response rating: postemergence
Outline: as §1

wild oat = assay: Test B postemergence herbicide test; type: in vivo, Avena fatua; conditions: postemergence
Outline: as §3

pigweed = assay: Test B pre-/postemergence herbicide test; type: in vivo, Amaranthus retroflexus; conditions: for Pigweed plant response rating (0 to 100 scale) / Plant response rating, Pigweed: 0 = no effect, 100 = complete control, preemergence; for Pigweed plant response rating: postemergence
Outline: as §2

corn = assay: Test B pre-/postemergence herbicide test; type: in vivo, Zea mays; conditions: for Corn plant response rating (0 to 100 scale) / Plant response rating, Corn: 0 = no effect, 100 = complete control, preemergence; for Corn plant response rating: postemergence
Outline: as §2

morningglory = assay: Test B pre-/postemergence herbicide test; type: in vivo, Ipomoea coccinea; conditions: for Morningglory plant response rating (0 to 100 scale) / Plant response rating, Morningglory: 0 = no effect, 100 = complete control, preemergence; for Morningglory plant response rating: postemergence
Outline: as §1

[4] = 125 g ai/ha, visual rating, scale 0 (no effect) to 100 (complete control)
[5] = 500 g ai/ha, scale 0 to 100, 0 is no effect, 100 is complete control

SMILES: CCn1nc(C(C)(C)C)cc1C(=O)Nc1cc(C(=S)N(C)C)ccc1F [Compound 294]
- Barnyardgrass plant response rating (0 to 100 scale) (barnyardgrass [1]; 125 g ai/ha): 100
- Barnyardgrass plant response rating (barnyardgrass [1]; [4]): 20
- Plant response rating, Barnyardgrass (barnyardgrass [1]; 500 g ai/ha, visual rating): 100
- Barnyardgrass plant response rating (barnyardgrass [1]; [5]): 60
- Crabgrass, Large plant response rating (0 to 100 scale) (large crabgrass; 125 g ai/ha): 100
- Crabgrass, Large plant response rating (large crabgrass; [4]): 10
- Plant response rating, Crabgrass, Large (large crabgrass; 500 g ai/ha, visual rating): 100
- Crabgrass, Large plant response rating (large crabgrass; [5]): 20
- Wheat plant response rating (wheat; [4]): 30
- Wheat plant response rating (wheat; [5]): 40
- Surinam Grass plant response rating (0 to 100 scale) (Surinam grass; 125 g ai/ha): 100
- Surinam Grass plant response rating (Surinam grass; [4]): 20
- Plant response rating, Surinam Grass (Surinam grass; 500 g ai/ha, visual rating): 100
- Surinam Grass plant response rating (Surinam grass; [5]): 40
- Rice plant response rating (rice): 90
- Sedge, Umbrella plant response rating [2]: 80
- Barnyardgrass plant response rating (barnyardgrass [3]): 90
- Foxtail, Giant plant response rating (0 to 100 scale) (giant foxtail; 125 g ai/ha): 90
- Foxtail, Giant plant response rating (giant foxtail; [4]): 30
- Plant response rating, Foxtail, Giant (giant foxtail; 500 g ai/ha, visual rating): 100
- Foxtail, Giant plant response rating (giant foxtail; [5]): 50
- Blackgrass plant response rating (blackgrass; [4]): 20
- Blackgrass plant response rating (blackgrass; [5]): 60
- Lambsquarters plant response rating (0 to 100 scale) (lambsquarters; 125 g ai/ha): 100
- Lambsquarters plant response rating (lambsquarters; [4]): 70
- Plant response rating, Lambsquarters (lambsquarters; 500 g ai/ha, visual rating): 100
- Lambsquarters plant response rating (lambsquarters; [5]): 80
- Ducksalad plant response rating (ducksalad): 90
- Cocklebur plant response rating (0 to 100 scale) (cocklebur; 125 g ai/ha): 90
- Cocklebur plant response rating (cocklebur; [4]): 30
- Plant response rating, Cocklebur (cocklebur; 500 g ai/ha, visual rating): 100
- Cocklebur plant response rating (cocklebur; [5]): 30
- Oat, Wild plant response rating (wild oat; [4]): 40
- Oat, Wild plant response rating (wild oat; [5]): 50
- Pigweed plant response rating (0 to 100 scale) (pigweed; 125 g ai/ha): 100
- Pigweed plant response rating (pigweed; [4]): 30
- Plant response rating, Pigweed (pigweed; 500 g ai/ha, visual rating): 100
- Pigweed plant response rating (pigweed; [5]): 70
- Corn plant response rating (0 to 100 scale) (corn; 125 g ai/ha): 80
- Corn plant response rating (corn; [4]): 10
- Plant response rating, Corn (corn; 500 g ai/ha, visual rating): 100
- Corn plant response rating (corn; [5]): 50
- Morningglory plant response rating (0 to 100 scale) (morningglory; 125 g ai/ha): 0
- Morningglory plant response rating (morningglory; [4]): 10
- Plant response rating, Morningglory (morningglory; 500 g ai/ha, visual rating): 20
- Morningglory plant response rating (morningglory; [5]): 20

SMILES: CCn1nc(C2(C)CC2)cc1C(=O)Nc1cc(C(=O)N(C)C)ccc1F [Compound 299]
- Barnyardgrass plant response rating (0 to 100 scale) (barnyardgrass [1]; 125 g ai/ha): 90
- Barnyardgrass plant response rating (barnyardgrass [1]; [4]): 10
- Plant response rating, Barnyardgrass (barnyardgrass [1]; 500 g ai/ha, visual rating): 100
- Barnyardgrass plant response rating (barnyardgrass [1]; [5]): 90
- Crabgrass, Large plant response rating (0 to 100 scale) (large crabgrass; 125 g ai/ha): 100
- Crabgrass, Large plant response rating (large crabgrass; [4]): 10
- Plant response rating, Crabgrass, Large (large crabgrass; 500 g ai/ha, visual rating): 100
- Crabgrass, Large plant response rating (large crabgrass; [5]): 90
- Wheat plant response rating (wheat; [4]): 20
- Wheat plant response rating (wheat; [5]): 30
- Surinam Grass plant response rating (0 to 100 scale) (Surinam grass; 125 g ai/ha): 100
- Surinam Grass plant response rating (Surinam grass; [4]): 20
- Plant response rating, Surinam Grass (Surinam grass; 500 g ai/ha, visual rating): 100
- Surinam Grass plant response rating (Surinam grass; [5]): 80
- Rice plant response rating (rice): 90
- Sedge, Umbrella plant response rating [2]: 90
- Barnyardgrass plant response rating (barnyardgrass [3]): 90
- Foxtail, Giant plant response rating (0 to 100 scale) (giant foxtail; 125 g ai/ha): 100
- Foxtail, Giant plant response rating (giant foxtail; [4]): 10
- Plant response rating, Foxtail, Giant (giant foxtail; 500 g ai/ha, visual rating): 100
- Foxtail, Giant plant response rating (giant foxtail; [5]): 80
- Blackgrass plant response rating (blackgrass; [4]): 20
- Blackgrass plant response rating (blackgrass; [5]): 50
- Lambsquarters plant response rating (0 to 100 scale) (lambsquarters; 125 g ai/ha): 100
- Lambsquarters plant response rating (lambsquarters; [4]): 40
- Plant response rating, Lambsquarters (lambsquarters; 500 g ai/ha, visual rating): 100
- Lambsquarters plant response rating (lambsquarters; [5]): 100
- Ducksalad plant response rating (ducksalad): 90
- Cocklebur plant response rating (0 to 100 scale) (cocklebur; 125 g ai/ha): 20
- Cocklebur plant response rating (cocklebur; [4]): 20
- Plant response rating, Cocklebur (cocklebur; 500 g ai/ha, visual rating): 60
- Cocklebur plant response rating (cocklebur; [5]): 70
- Oat, Wild plant response rating (wild oat; [4]): 20
- Oat, Wild plant response rating (wild oat; [5]): 40
- Pigweed plant response rating (0 to 100 scale) (pigweed; 125 g ai/ha): 100
- Pigweed plant response rating (pigweed; [4]): 90
- Plant response rating, Pigweed (pigweed; 500 g ai/ha, visual rating): 100
- Pigweed plant response rating (pigweed; [5]): 100
- Corn plant response rating (0 to 100 scale) (corn; 125 g ai/ha): 50
- Corn plant response rating (corn; [4]): 0
- Plant response rating, Corn (corn; 500 g ai/ha, visual rating): 90
- Corn plant response rating (corn; [5]): 20
- Morningglory plant response rating (0 to 100 scale) (morningglory; 125 g ai/ha): 40
- Morningglory plant response rating (morningglory; [4]): 70
- Plant response rating, Morningglory (morningglory; 500 g ai/ha, visual rating): 100
- Morningglory plant response rating (morningglory; [5]): 80
